Several values for one entry are separate records, joined by “and”; a condition that tells them apart may be missing. Equal entries are not always repeated.
Tests used:
[1] = target: h-r EC1,TM2-4 URAT1 chimera (Homo sapiens, UniProt Q96S37, A103T/A133T/A162V/A184S/A189I/A193M/A195T/A226S/A51V/A59S/A71V/D100E/E110D/E70D/F192L/F208S/G218A/H142Q/I126T/I75V/K134T/K145R/L174R/L206V/L64P/L67F/L99I/M183V/M186S/N136D/N82D/P101S/P165H/P69R/Q182L/R124H/R89L/S107N/S46H/S66D/S68G/T128R/T219S/V117E/V198L/Y152F); assay: cell-based; conditions: IC50 (uric acid transport), HEPES pH 7.3, 100 μM 14C-uric acid
Chain of h-r EC1,TM2-4 URAT1 chimera (Q96S37 1-553 with the stated changes): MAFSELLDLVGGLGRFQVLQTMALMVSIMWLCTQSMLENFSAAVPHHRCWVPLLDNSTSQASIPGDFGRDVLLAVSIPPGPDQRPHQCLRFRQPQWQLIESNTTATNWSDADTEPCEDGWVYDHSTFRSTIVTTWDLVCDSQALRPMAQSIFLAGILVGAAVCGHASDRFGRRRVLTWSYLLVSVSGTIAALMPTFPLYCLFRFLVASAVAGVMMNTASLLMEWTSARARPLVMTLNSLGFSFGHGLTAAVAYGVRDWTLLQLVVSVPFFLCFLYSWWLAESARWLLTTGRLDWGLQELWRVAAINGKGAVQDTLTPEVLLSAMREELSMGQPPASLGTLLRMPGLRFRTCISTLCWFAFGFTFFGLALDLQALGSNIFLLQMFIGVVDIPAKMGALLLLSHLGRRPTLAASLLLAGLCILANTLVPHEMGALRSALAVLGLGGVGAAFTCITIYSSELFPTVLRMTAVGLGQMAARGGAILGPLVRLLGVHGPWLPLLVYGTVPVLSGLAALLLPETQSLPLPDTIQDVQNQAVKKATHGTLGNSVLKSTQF
Description: (§1) hURAT1 (GenBank BC053348.1) and rURAT1 (NCBI NM_001034943.1) genes were purchased from Origene Technologies, Inc. and subcloned into pCMV6/neo using NotI, creating pCMV6/neo-hURAT1 and pCMV6/neo-rURAT1. Mutants were produced by polymerase chain reaction (PCR) or site-directed mutagenesis using the QuikChange Lightning Multi Site-Directed Mutagenesis Kit (Agilent Technologies). […] Detailed methods are provided in Supplementary Methods, and primers are listed in Supplementary Table 1. […] Residues in rURAT1 and hOAT1 that correspond to the residues in hURAT1 were identified from aligned protein sequences (Supplementary Fig. 1)[50].
(§2) DNA (10 μg) was mixed with 30 μl of DreamFect Gold (Boca Scientific) in 2 ml OptiMem (Life Technologies). […]
(§3) Compounds were serially diluted into assay buffer and added to the cells for 5 minutes prior to addition of radiolabelled uric acid substrate. […] Each treatment was measured in triplicate. […]
(§4) Nonlinear regression analyses using GraphPad Prism software were used to calculate the potency of URAT1 inhibitors (IC50 values) from log (inhibitor) versus response - variable slope (four parameters) equations. Statistical significance was assessed using Student’s unpaired t-tests.

[2] = target: h-r IC3 URAT1 chimera (Homo sapiens, UniProt Q96S37, F348L/G295S/G307R/G309K/G331N/I305V/K308R/L287I/L321R/L328P/M330G/M343T/P317V/P333A/P334G/Q297R/Q312A/R325Q/R342H/S329N/S336R/T289V/V311E/W294Q/W300Q); assay: cell-based
Chain of h-r IC3 URAT1 chimera (Q96S37 1-553 with the stated changes): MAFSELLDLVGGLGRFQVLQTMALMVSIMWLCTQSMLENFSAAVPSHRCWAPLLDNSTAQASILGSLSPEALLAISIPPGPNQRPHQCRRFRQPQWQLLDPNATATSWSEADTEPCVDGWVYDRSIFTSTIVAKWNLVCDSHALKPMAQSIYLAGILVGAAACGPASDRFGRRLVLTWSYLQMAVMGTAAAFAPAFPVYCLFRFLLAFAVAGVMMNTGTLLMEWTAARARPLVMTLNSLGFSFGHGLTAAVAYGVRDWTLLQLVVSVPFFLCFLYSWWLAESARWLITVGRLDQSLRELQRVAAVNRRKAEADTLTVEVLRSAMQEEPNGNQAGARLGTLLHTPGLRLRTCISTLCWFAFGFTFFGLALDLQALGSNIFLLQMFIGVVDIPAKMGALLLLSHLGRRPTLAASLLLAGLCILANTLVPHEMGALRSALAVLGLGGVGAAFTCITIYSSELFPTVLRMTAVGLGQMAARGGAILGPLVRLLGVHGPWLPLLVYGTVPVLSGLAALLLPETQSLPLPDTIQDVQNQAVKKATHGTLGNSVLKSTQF
Description: as §1, §2, §3, §4

[3] = target: T1, h-M25V hURAT1 point mutant (Homo sapiens, UniProt Q96S37, M25V); assay: URAT1 uric acid transport activity assay; assay type: cell-based
T1 construct: expressed in transfected cells; host or cells: HEK-293T
T1 sequence (Q96S37 whole entry M25V): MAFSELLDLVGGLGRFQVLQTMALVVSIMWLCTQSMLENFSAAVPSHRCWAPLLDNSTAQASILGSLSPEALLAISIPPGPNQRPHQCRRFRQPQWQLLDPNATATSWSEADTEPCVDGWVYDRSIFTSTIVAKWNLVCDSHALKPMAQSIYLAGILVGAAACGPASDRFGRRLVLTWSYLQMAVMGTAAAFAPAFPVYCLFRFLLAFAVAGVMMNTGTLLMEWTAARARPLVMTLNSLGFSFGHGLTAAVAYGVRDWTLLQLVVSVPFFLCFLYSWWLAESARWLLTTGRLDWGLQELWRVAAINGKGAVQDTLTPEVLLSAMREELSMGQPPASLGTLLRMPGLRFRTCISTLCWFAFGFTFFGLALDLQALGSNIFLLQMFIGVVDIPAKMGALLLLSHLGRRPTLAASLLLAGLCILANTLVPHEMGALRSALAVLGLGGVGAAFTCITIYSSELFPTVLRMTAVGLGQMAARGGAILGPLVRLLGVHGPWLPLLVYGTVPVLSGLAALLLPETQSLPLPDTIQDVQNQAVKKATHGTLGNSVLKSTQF

[4] = target: T2, h-M474V hURAT1 point mutant (Homo sapiens, UniProt Q96S37, M474V); assay: URAT1 uric acid transport activity assay; assay type: cell-based; conditions: HEPES pH 7.3, 100 μM 14C-uric acid
T2 construct: expressed in transfected cells; host or cells: HEK-293T
T2 sequence (Q96S37 whole entry M474V): as the sequence (Q96S37 whole entry M25V) above, with V25M, M474V counted along it

[5] = target: T3, h-C351F/T354M hURAT1 double point mutant (Homo sapiens, UniProt Q96S37, C351F/T354M); assay: URAT1 uric acid transport activity assay; assay type: cell-based; conditions: HEPES pH 7.3, 100 μM 14C-uric acid
T3 construct: expressed in transfected cells; host or cells: HEK-293T
T3 sequence (Q96S37 whole entry C351F/T354M): as the sequence (Q96S37 whole entry M25V) above, with V25M, C351F, T354M counted along it
Procedure, shortened: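 Rat URAT1 point or double mutants in pCMV6/neo were transiently transfected into cells and assayed the next day. Compounds were preincubated for 5 minutes, then 100 μM 14C-uric acid uptake was measured over 10 minutes in triplicate. IC50 came from four-parameter variable-slope nonlinear regression.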

[6] = target: T4, h-S27P hURAT1 point mutant (Homo sapiens, UniProt Q96S37, S27P); assay: URAT1 uric acid transport activity assay; assay type: cell-based; conditions: HEPES pH 7.3, 100 μM 14C-uric acid
T4 construct: expressed in transfected cells; host or cells: HEK-293T
T4 sequence (Q96S37 whole entry S27P): as the sequence (Q96S37 whole entry M25V) above, with V25M, S27P counted along it

[7] = target: T5, h-M29L hURAT1 point mutant (Homo sapiens, UniProt Q96S37, M29L); assay: URAT1 uric acid transport activity assay; assay type: cell-based; conditions: HEPES pH 7.3, 100 μM 14C-uric acid
T5 construct: expressed in transfected cells; host or cells: HEK-293T
T5 sequence (Q96S37 whole entry M29L): as the sequence (Q96S37 whole entry M25V) above, with V25M, M29L counted along it

[8] = target: T6, h-r TM9-C URAT1 chimera (Homo sapiens, UniProt Q96S37, A432I/A436S/H428R/T424I); assay: URAT1 uric acid transport activity assay; assay type: cell-based, human/rat; conditions: HEPES pH 7.3, 100 μM 14C-uric acid
T6 construct: expressed in transfected cells; host or cells: HEK-293T
T6 sequence (Q96S37 whole entry T424I/H428R/A432I/A436S): as the sequence (Q96S37 whole entry M25V) above, with V25M, T424I, H428R, A432I, A436S counted along it
Description: as §1
(§5) DNA (10 μg) was mixed with 30 μl of DreamFect Gold (Boca Scientific) in 2 ml OptiMem (Life Technologies). After 20 minutes, 18 ml of media containing 2 × 10^7 cells in suspension was added and mixed, and 200 μl per well were plated onto white clear-bottomed poly-D-lysine coated 96-well plates (BD Biosciences). The cells were assayed the following day.
(§6) Compounds were serially diluted into assay buffer and added to the cells for 5 minutes prior to addition of radiolabelled uric acid substrate. URAT1-expressing cells were incubated with 100 μM ^14C-uric acid for 10 minutes. […] Each treatment was measured in triplicate.
(§7) Unlabelled uric acid was prepared at a 20 mM stock just prior to use in a solution containing 20 mM dibasic potassium phosphate and 20 mM potassium hydroxide.
as §4

[9] = target: T7, h-r TM1 chimera (rURAT1 residues 1–99 and hURAT residues 100–553) (UniProt Q3ZAV1+Q96S37); assay: URAT1 uric acid transport activity assay; assay type: cell-based, human/rat
T7 construct: a chimera consisting of rURAT1 residues 1–99 and hURAT residues 100–553 (h-r TM1); expressed in transfected cells; host or cells: HEK-293T
T7 sequence (Q3ZAV1 1-99, change not shown): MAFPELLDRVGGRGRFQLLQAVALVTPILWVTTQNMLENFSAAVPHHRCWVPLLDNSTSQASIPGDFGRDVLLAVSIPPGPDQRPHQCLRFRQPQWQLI
T7 sequence (Q96S37 100-553, change not shown): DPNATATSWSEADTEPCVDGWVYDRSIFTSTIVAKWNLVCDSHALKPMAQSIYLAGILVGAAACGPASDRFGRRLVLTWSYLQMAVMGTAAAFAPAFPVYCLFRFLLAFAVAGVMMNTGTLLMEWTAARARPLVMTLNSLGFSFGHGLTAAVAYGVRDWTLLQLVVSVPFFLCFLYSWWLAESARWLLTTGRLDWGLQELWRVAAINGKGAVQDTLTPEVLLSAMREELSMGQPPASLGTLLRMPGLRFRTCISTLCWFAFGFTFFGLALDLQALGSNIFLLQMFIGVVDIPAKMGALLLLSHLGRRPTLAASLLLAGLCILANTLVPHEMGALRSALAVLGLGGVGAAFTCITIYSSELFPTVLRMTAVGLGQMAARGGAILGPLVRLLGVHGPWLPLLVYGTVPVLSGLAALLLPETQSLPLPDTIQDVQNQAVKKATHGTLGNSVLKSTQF
Description: as §1, §5, §6, §7, §4

[10] = target: T8, r-h TM1 chimera (hURAT1 residues 1–99 and rURAT1 residues 100–553) (UniProt Q3ZAV1+Q96S37); assay: URAT1 uric acid transport activity assay; assay type: cell-based, human/rat; conditions: HEPES pH 7.3, 100 μM 14C-uric acid
T8 construct: The chimera r-hTM1, consisting of hURAT1 residues 1–99 and rURAT1 residues 100–553; expressed in transfected cells; host or cells: HEK-293T
T8 sequence (Q96S37 1-99, change not shown): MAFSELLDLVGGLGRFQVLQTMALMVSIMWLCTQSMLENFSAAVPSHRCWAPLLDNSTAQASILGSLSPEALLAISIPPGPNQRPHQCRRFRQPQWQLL
T8 sequence (Q3ZAV1 100-553, change not shown): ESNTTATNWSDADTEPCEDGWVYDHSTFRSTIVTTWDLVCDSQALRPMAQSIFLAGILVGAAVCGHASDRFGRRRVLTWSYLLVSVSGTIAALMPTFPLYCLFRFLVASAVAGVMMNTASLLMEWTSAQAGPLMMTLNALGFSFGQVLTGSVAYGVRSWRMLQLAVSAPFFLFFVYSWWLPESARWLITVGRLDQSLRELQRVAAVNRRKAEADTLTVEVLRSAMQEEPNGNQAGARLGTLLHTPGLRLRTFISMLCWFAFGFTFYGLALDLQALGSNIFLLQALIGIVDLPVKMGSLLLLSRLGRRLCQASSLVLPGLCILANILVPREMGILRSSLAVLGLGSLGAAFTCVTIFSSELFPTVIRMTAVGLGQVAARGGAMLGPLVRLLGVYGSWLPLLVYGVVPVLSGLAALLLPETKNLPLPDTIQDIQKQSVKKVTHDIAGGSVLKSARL
Description: as §1, §5, §6, §7, §4

[11] = target: T9, h-r TM7 URAT1 chimera (Homo sapiens, UniProt Q96S37, C351F/F365Y/T354M); assay: URAT1 uric acid transport activity assay; assay type: cell-based, human/rat
T9 construct: expressed in transfected cells; host or cells: HEK-293T
T9 sequence (Q96S37 whole entry C351F/T354M/F365Y): as the sequence (Q96S37 whole entry M25V) above, with V25M, C351F, T354M, F365Y counted along it
Description: as §1, §5, §6, §7, §4

[12] = target: T10, h-r TM9-N URAT1 chimera (Homo sapiens, UniProt Q96S37, A411S/A416P/L414V); assay: URAT1 uric acid transport activity assay; assay type: cell-based, human/rat; conditions: HEPES pH 7.3, 100 μM 14C-uric acid
T10 construct: expressed in transfected cells; host or cells: HEK-293T
T10 sequence (Q96S37 whole entry A411S/L414V/A416P): as the sequence (Q96S37 whole entry M25V) above, with V25M, A411S, L414V, A416P counted along it
Description: as §1, §5, §6, §7, §4

[13] = target: T11, h-r TM11 URAT1 chimera (Homo sapiens, UniProt Q96S37, I481M/M474V); assay: URAT1 uric acid transport activity assay; assay type: cell-based, human/rat
T11 construct: expressed in transfected cells; host or cells: HEK-293T
T11 sequence (Q96S37 whole entry M474V/I481M): as the sequence (Q96S37 whole entry M25V) above, with V25M, M474V, I481M counted along it
Description: as §1, §5, §6, §7, §4

[14] = target: T12, h-r TM10 URAT1 chimera (Homo sapiens, UniProt Q96S37, G444S/I452V/V445L/Y455F); assay: URAT1 uric acid transport activity assay; assay type: cell-based, human/rat; conditions: HEPES pH 7.3, 100 μM 14C-uric acid
T12 construct: expressed in transfected cells; host or cells: HEK-293T
T12 sequence (Q96S37 whole entry G444S/V445L/I452V/Y455F): as the sequence (Q96S37 whole entry M25V) above, with V25M, G444S, V445L, I452V, Y455F counted along it
Description: as §1, §5, §6, §7, §4

[15] = target: T13, h-r TM5-C URAT1 chimera (Homo sapiens, UniProt Q96S37, A249G/A250S/G246V/H245Q); assay: URAT1 uric acid transport activity assay; assay type: cell-based, human/rat; conditions: HEPES pH 7.3, 100 μM 14C-uric acid
T13 construct: expressed in transfected cells; host or cells: HEK-293T
T13 sequence (Q96S37 whole entry H245Q/G246V/A249G/A250S): as the sequence (Q96S37 whole entry M25V) above, with V25M, H245Q, G246V, A249G, A250S counted along it
Description: as §1, §5, §6, §7, §4

[16] = target: T14, h-r TM8 URAT1 chimera (Homo sapiens, UniProt Q96S37, A392V/A396S/F384L/H402R/I390L/M383A/P407L/V387I); assay: URAT1 uric acid transport activity assay; assay type: cell-based, human/rat; conditions: HEPES pH 7.3, 100 μM 14C-uric acid
T14 construct: expressed in transfected cells; host or cells: HEK-293T
T14 sequence (Q96S37 whole entry M383A/F384L/V387I/I390L/A392V/A396S/H402R/P407L): as the sequence (Q96S37 whole entry M25V) above, with V25M, M383A, F384L, V387I, I390L, A392V, A396S, H402R, P407L counted along it
Description: as §1, §5, §6, §7, §4

[17] = target: T15, h-r TM5-N URAT1 chimera (Homo sapiens, UniProt Q96S37, S238A/V233M); assay: URAT1 uric acid transport activity assay; assay type: cell-based, human/rat; conditions: HEPES pH 7.3, 100 μM 14C-uric acid
T15 construct: expressed in transfected cells; host or cells: HEK-293T
T15 sequence (Q96S37 whole entry V233M/S238A): as the sequence (Q96S37 whole entry M25V) above, with V25M, V233M, S238A counted along it
Description: as §1, §5, §6, §7, §4

[18] = target: T16, h-r TM6 URAT1 chimera (Homo sapiens, UniProt Q96S37, C272F/L274V); assay: URAT1 uric acid transport activity assay; assay type: cell-based, human/rat; conditions: HEPES pH 7.3, 100 μM 14C-uric acid
T16 construct: expressed in transfected cells; host or cells: HEK-293T
T16 sequence (Q96S37 whole entry C272F/L274V): as the sequence (Q96S37 whole entry M25V) above, with V25M, C272F, L274V counted along it
Description: as §1, §5, §6, §7, §4

## O=C1C(CC[S+]([O-])c2ccccc2)C(=O)N(c2ccccc2)N1c1ccccc1 (stereo not shown) [sulfinpyrazone]
[1]
  IC50: 3 µM and 3.4 µM
[2]
  IC50: 67 ± 15 µM
[3]; from IC50 values
  fold reduced affinity of h-M25V compared to hURAT1: 1.7 fold
[3]; h-M25V, HEPES pH 7.3, 100 μM 14C-uric acid
  IC50: 53 ± 6 µM
[4]
  IC50: 30 ± 3.4 µM
[5]
  IC50: 60 ± 5.9 µM
[6]
  IC50: 9.3 µM and 9 µM
[7]
  IC50: 8.5 µM and 9 µM
[8]
  IC50: 38 ± 11 µM
[9]; from IC50 values
  fold reduced affinity of h-r TM1 compared to hURAT1: 3 fold
[9]; h-r TM1, HEPES pH 7.3, 100 μM 14C-uric acid
  IC50: 93 ± 17 µM
[10]
  IC50: 87 ± 25 µM
[11]; from IC50 values
  fold reduced affinity of h-r TM7 compared to hURAT1: 8 fold
[11]; h-r TM7, HEPES pH 7.3, 100 μM 14C-uric acid
  IC50: 254 ± 47 µM
[12]
  IC50: 36 ± 17 µM
[13]; from IC50 values
  fold reduced affinity of h-r TM11 compared to hURAT1: 3 fold
[13]; h-r TM11, HEPES pH 7.3, 100 μM 14C-uric acid
  IC50: 100 ± 15 µM
[14]
  IC50: 49 ± 11 µM
[15]
  IC50: 34 ± 4 µM
[16]
  IC50: 29 ± 13 µM
[17]
  IC50: 37 ± 9 µM
[18]
  IC50: 30 ± 4 µM

— PMC5054527, “Mechanism of high affinity inhibition of the human urate transporter URAT1” (Scientific Reports, 2016)
